Assay results taken from patent publication US20100028312A1, “Stably transformed bone marrow-derived cells and uses thereof” (Caritas St. Elizabeth Medical Center of Boston Inc, priority 2005, published 2010).

Key:
EPC [1] = assay: RT-PCR assay of AAV-IGF-1 mRNA expression in transduced EPC, with or without genistein; assay type: cell-based, rats
Procedure: (§1) EPC Culture and Expansion. Peripheral blood (about 1 ml) was obtained from the hearts of rats and mononuclear cells were isolated by density gradient centrifugation and cultured for 5 days. EPC were expanded ex vivo as described above.
(§2) Transduction of EPC. EPC cultures were infected with type 2 AAV-lacZ (also referred to herein as AAV-lacZ(+)) (control) vectors or AAV-IGF-1 vectors, prepared as described above, using approximately 3000 particles/cell. Some cultures were treated for about 1 hour with genistein, a specific inhibitor of cellular protein tyrosine kinases, (2-40 μM, preferably about 20 μM). Control vectors used in the genistein experiments also included AAV vector without lacZ, designated AAVlacZ(−).
One week after infection, the cells were analyzed for β-galactosidase activity. AAV-IGF-1 mRNA expression in EPCs was determined by RT-PCR assay using primers specific for human IGF-1 sequences. The primer sequences used in these studies are as shown: […]

EPC [2] = assay: β-galactosidase activity in EPC transduced with type 2 AAV, with or without genistein; assay type: cell-based, rats
Procedure: as §1, §2
AAV-IGF-1 mRNA expression in EPCs was determined by RT-PCR assay using primers specific for human IGF-1 sequences. The primer sequences used in these studies are as shown:
To determine whether efficiency of rAAV transduction of cultured EPC can be enhanced by inhibiting protein tyrosine kinases in these cells, some EPC cultures were pretreated with genestein prior to infection with rAAV, as described above. Referring to FIG. 5, in cultures infected with AAVlacZ(−) control vector, β-gal activity was negligible. In cultures infected with AAVlacZ(+) without or with pretreatment with 20 μM genistein, β-gal activity was 3.35 vs. 12.09, respectively. […]

BM cells = details: 100 ng intraperitoneal for 3 consecutive days; 2 months after BMT; versus control BMT
Procedure: To examine the effect of VEGF on BM cell mobilization, we injected the mice with 100 ng VEGF-C intaperitoneally for 3 days.
Freshly isolated BM cells or PB cells were subjected to FluoReporter lacZ Flow Cytometry Kit (Molecular Probes, OR) or stained with acetylated low-density lipoprotein (LDL) labeled with 1′-dioctadecyl1-1,3,3,3′-tetramethyl-indocarbocyanine; Di-I (Biomedical Technologies Inc, MA) as described previously [13]. Analysis was performed on a FACStar flow cytometer (Becton Dickinson) and Cell Quest Software counting 10,000 events per sample.
Accordingly, we treated recipient mice with VEGF protein and analyzed the kinetics of mobilization of BM cells by FACS analysis.
The means±S.E. from 9 independent experiments are presented. *, p<0.01, **, p<0.05 versus control BMT (FIG. 2A).

## O=c1c(-c2ccc(O)cc2)coc2cc(O)cc(O)c12 [genistein]
EPC [1]; AAV-IGF-1 transduced EPC following treatment with genistein
  AAV-mediated IGF-1 expression (mRNA, RT-PCR): 206.1 units
EPC [1]; genistein versus no genistein
  increase of IGF-1 expression from AAV by genistein: about seven-fold
EPC [2]; 20 μM genistein versus no genistein, AAVlacZ(+)
  increase of lacZ activity by genistein: approximately four-fold
EPC [2]; 14 days after transduction, AAVlacZ(+)-infected EPC pretreated with 20 μM genistein
  β-gal activity: 12.09

## VEGF
BM cells
  β-gal expression in both PB and BM of recipient mice: significantly increased
